Our source for the ring closure, yield of all isomers values is US5599926.

The conditions of the data set: from C=CCOc1ccc(C[C@H](N)C(=O)NCc2cc(CSc3cc(SCc4cc(CNC(=O)[C@@H](N)Cc5ccc(OCC=C)cc5)cc(C(=O)Oc5c(F)c(F)c(F)c(F)c5F)c4)cc(SCc4cc(CNC(=O)[C@@H](N)Cc5ccc(OCC=C)cc5)cc(C(=O)Oc5c(F)c(F)c(F)c(F)c5F)c4)c3)cc(C(=O)Oc3c(F)c(F)c(F)c(F)c3F)c2)cc1; amide bond; N,N-diisopropylethylamine (pentafluorophenyl ester); THF; 2.3 mM; 25.0 °C; 45.0 h.

Each structure is given as a SMILES string.

In turn, `C=CCOc1ccc(C[C@@H]2NC(=O)c3cc4cc(c3)CSc3cc5cc(c3)SCc3cc(cc(c3)C(=O)N[C@@H](Cc3ccc(OCC=C)cc3)C(=O)NC4)CNC(=O)[C@H](Cc3ccc(OCC=C)cc3)NC(=O)c3cc(cc(c3)CS5)CNC2=O)cc1` returned a ring closure, yield of all isomers of 65%.
